Assay results: US8986995B2, “Methods of deriving differentiated cells from stem cells” (International Stem Cell Corporation, priority 2008, dated 2015)
Entries after “also recorded” stand apart in the source; their conditions may differ.

Tests used:
hpSC = assay: Proportion of DE derived from hpSC, HDAC inhibitor pretreatment versus simultaneous application with Activin A; type: cell-based, human; settings: for enhancement in the proportion of DE produced from hpSC: applied at the same time with Activin A
hpSC line 2 p = assay: Flow cytometry for CXCR4-positive definitive endoderm cells after differentiation, line 2 p; type: cell-based, human; settings: TSA pretreatment
Protocol: (§1) Cell culture. Undifferentiated hpSC and hESC were maintained on mouse embryo fibroblast feeder layers in KnockOut DMEM/F12 (Invitrogen) supplemented with 15% KnockOut serum replacement (Invitrogen), 0.05 mM nonessential amino acids (NEAA) (Invitrogen), 2 mM Glutamax-I (Invitrogen), penicillin/streptomycin (Invitrogen), 55 μM 2-mercapthoethonol (Invitrogen), 5 ng/ml recombinant human FGF-basic (PeproTech) and 20 ng/ml recombinant human activin A (R&D Systems); for TSA-pretreatment culture medium was supplemented with 100 nM TSA (Sigma) for 24 hours. Cultures were manually passaged at 1:4-1:6 split ratio every 5-7 days. Differentiation was carried out in RPMI 1640 (Invitrogen) supplemented with Glutamax-I, penicillin/streptomycin, 0.5 mg/ml human serum albumin (Sigma), 100 ng/ml recombinant human Activin A, 75 ng/ml recombinant mouse Wnt3a (R&D Systems) for the first 24 hours only. For subsequent days of differentiation media was RPMI 1640 supplemented with 0.2% human AB serum (Fisher BioReagents) and 100 ng/ml recombinant human Activin A. Before initiating differentiation, stem cells were given a brief wash in DPBS (HyClone). […]
(§2) Flow cytometry. […] Flow cytometry data were acquired on a Beckton Dickinson FACS Caliber and analyzed using FACSDiva software (BD Bioscience).

hpSC line 6 p = assay: Flow cytometry for CXCR4-positive definitive endoderm cells after differentiation, line 6 p; type: cell-based, human; settings: TSA pretreatment
Protocol: as §1, §2

hpSC line 8 p = assay: Flow cytometry for CXCR4-positive definitive endoderm cells after differentiation, line 8 p; type: cell-based, human; settings: TSA pretreatment
Protocol: as §1, §2

hpSC line 15 ph = assay: Flow cytometry for CXCR4-positive definitive endoderm cells after differentiation, line 15 ph; type: cell-based, human; settings: TSA pretreatment
Protocol: as §1, §2

[1] = test system: human parthenogenetic stem cells (hpSC); assay: Flow cytometry for CXCR4-positive cells, hpSC differentiation to definitive endoderm; type: cell-based; settings: all 4 hpSC lines, CXCR4-positive cells by flow cytometry
Protocol: as §1
Flow cytometry. […] Flow cytometry data were acquired on a Beckton Dickinson FACS Caliber and analyzed using FACSDiva software (BD Bioscience). […]

[2] = test system: human parthenogenetic stem cells (hpSC); assay: SOX17 immunostaining of differentiated hpSC; type: cell-based
Protocol: (§3) Cell culture. Undifferentiated hpSC and hESC were maintained on mouse embryo fibroblast feeder layers in KnockOut DMEM/F12 (Invitrogen) supplemented with 15% KnockOut serum replacement (Invitrogen), 0.05 mM nonessential amino acids (NEAA) (Invitrogen), 2 mM Glutamax-I (Invitrogen), penicillin/streptomycin (Invitrogen), 55 μM 2-mercapthoethonol (Invitrogen), 5 ng/ml recombinant human FGF-basic (PeproTech) and 20 ng/ml recombinant human activin A (R&D Systems); for TSA-pretreatment culture medium was supplemented with 100 nM TSA (Sigma) for 24 hours. Cultures were manually passaged at 1:4-1:6 split ratio every 5-7 days. Differentiation was carried out in RPMI 1640 (Invitrogen) supplemented with Glutamax-I, penicillin/streptomycin, 0.5 mg/ml human serum albumin (Sigma), 100 ng/ml recombinant human Activin A, 75 ng/ml recombinant mouse Wnt3a (R&D Systems) for the first 24 hours only. For subsequent days of differentiation media was RPMI 1640 supplemented with 0.2% human AB serum (Fisher BioReagents) and 100 ng/ml recombinant human Activin A. Before initiating differentiation, stem cells were given a brief wash in DPBS (HyClone). […] The protocol is divided into two stages: TSA-pretreatment stage (orange color) and DE differentiation stage (green color). […]

[3] = test system: human parthenogenetic stem cells (hpSC); assay: Real-time quantitative PCR of marker gene expression in hpSC; type: cell-based
Protocol: Cell culture. Undifferentiated hpSC and hESC were maintained on mouse embryo fibroblast feeder layers in KnockOut DMEM/F12 (Invitrogen) supplemented with 15% KnockOut serum replacement (Invitrogen), 0.05 mM nonessential amino acids (NEAA) (Invitrogen), 2 mM Glutamax-I (Invitrogen), penicillin/streptomycin (Invitrogen), 55 μM 2-mercapthoethonol (Invitrogen), 5 ng/ml recombinant human FGF-basic (PeproTech) and 20 ng/ml recombinant human activin A (R&D Systems); for TSA-pretreatment culture medium was supplemented with 100 nM TSA (Sigma) for 24 hours. Cultures were manually passaged at 1:4-1:6 split ratio every 5-7 days. Differentiation was carried out in RPMI 1640 (Invitrogen) supplemented with Glutamax-I, penicillin/streptomycin, 0.5 mg/ml human serum albumin (Sigma), 100 ng/ml recombinant human Activin A, 75 ng/ml recombinant mouse Wnt3a (R&D Systems) for the first 24 hours only. For subsequent days of differentiation media was RPMI 1640 supplemented with 0.2% human AB serum (Fisher BioReagents) and 100 ng/ml recombinant human Activin A. Before initiating differentiation, stem cells were given a brief wash in DPBS (HyClone). […] The protocol is divided into two stages: TSA-pretreatment stage (orange color) and DE differentiation stage (green color). TSA-pretreatment is performed against background of the culture conditions that support pluripotency state of the hpSC at time interval from “−24” hours till “0” hours. Differentiation starts from time point “0” hours by applying Activin A- and Wnt3a-signaling and withholding TSA from culture medium. Several markers characteristics of each cell population are listed.
Real-time quantitative PCR. Sample collection, reverse transcription and real-time PCR reactions were as previously described (D'Amour et al, Nat. Biotechnol 23:1534-41, 2005).

undifferentiated hpSC = assay: Cell death and morphology of undifferentiated hpSC under pretreatment; type: cell-based, human; settings: TSA pretreatment of undifferentiated hpSC
Protocol: as §3

[4] = test system: LLC-6p parthenogenetic stem cell line; assay: Immunostaining of definitive endoderm markers, Example 1 protocol; type: cell-based, human; settings: 100 μM TSA pretreatment, then D1, D2, D3 media
Protocol: These endoderm-like cells were derived according a protocol of various culture media (D1-Activin A+Wnt3a; D2-Activin A; D3—Activin A; see Tables 1-4, below). However, prior to culture, the parthenogenetic cells were exposed to a pretreatment agent (trichostatin A (TSA)).
Accordingly, a protocol for generating definitive endoderm cells is as follows: (i) addition of 100 μM trichostatin A (TSA) to culture medium (phSC culture medium+TSA) and culture cells for about 24 hours; (ii) cultivation of the cells in phSC culture medium+TSA for about 24 hours; (iii) remove TSA from the culture (i.e., cultivation of the cells in culture medium D1 for about 24 hours); (iv) cultivation of the cells in culture medium D2 for about 24 hours; and (v) cultivation of the cells in culture medium D3 for about 24 hours.

[5] = test system: mouse embryonic stem cells; settings: cited from earlier work

Row | SMILES | enhancement in the proportion of DE produced from hpSC (hpSC) | proportion of DE derived from hpSC (hpSC; pretreatment of hpSC before Activin A) | CXCR-4 (CD184) + [% "Intact" Cells] (hpSC line 2 p; 3 day of differentiation) | CXCR-4 (CD184) + [% "Intact" Cells] (hpSC line 2 p; 4 day of differentiation) | CXCR-4 (CD184) + [% "Intact" Cells] (hpSC line 6 p; 3 day of differentiation) | CXCR-4 (CD184) + [% "Intact" Cells] (hpSC line 6 p; 4 day of differentiation) | CXCR-4 (CD184) + [% "Intact" Cells] (hpSC line 8 p; 3 day of differentiation) | CXCR-4 (CD184) + [% "Intact" Cells] (hpSC line 8 p; 4 day of differentiation) | CXCR-4 (CD184) + [% "Intact" Cells] (hpSC line 15 ph; 3 day of differentiation) | CXCR-4 (CD184) + [% "Intact" Cells] (hpSC line 15 ph; 4 day of differentiation) | increase in number of definitive endoderm cells over non-pretreated cultures [1] | relative proportion of SOX17 immunoreactive cells ([2]; after differentiation during 72 hours, TSA-treated versus non treated hpSC cultures) | proportion of SOX17-positive cells ([2]; hpSC pretreated with TSA 24 hours, after 72 hours of differentiation) | brachyury gene expression during differentiation ([3]; TSA-pretreated versus non TSA pretreated cultures, 24 h and 48 h of differentiation) | brachyury expression after pretreatment ([3]; after 24 hours TSA pretreatment, before start of differentiation (0h)) | expression of pluripotency genes OCT4 and SOX2 and DE genes CER1, SOX17, CXCR4 ([3]; after TSA pretreatment, before start of differentiation (0h)) | cell death and cell morphology (undifferentiated hpSC) | FoxA2 expression by immunostaining [4] | Sox17 expression by immunostaining [4] | effect on pluripotency factors including Nanog [5]
1 | CCCC(=O)[O-].[Na+] [NaB, sodium butyrate] | did not produce any enhancement | increased the proportion of DE |  |  |  |  |  |  |  |  |  |  |  |  |  |  |  |  |  | 
2 | CC(/C=C/C(=O)NO)=C\[C@@H](C)C(=O)c1ccc(N(C)C)cc1 [TSA, trichostatin A] | did not produce any enhancement |  | 61.0% | 58.9% | 61.2% | 67.6% | 67.1% | 76.7% | 24.1% | 34.2% | 1.4-1.8 fold | most numerous | greater than 70% | higher peak level of brachyury gene expression at 24 h and sharper kinetic of reduced expression at 48 h; also recorded: significantly higher levels of brachyury transcripts | slight upregulation of brachyury expression | no significant changes | some cell death as well as changes in cell morphology | overwhelming majority of cells expressed FoxA2 | majority of cells expressed Sox17 | suppression of important pluripotency factors
